# Data taken from patent publication US12012394B2, “Alpha-synuclein ligands” (Washington University, priority 2018, dated 2024).
# Values joined by “and” are separate entries in the source; they are usually repeats but may differ in a detail not shown here. Identical values can stand only once.
# Assays:
# Banner seeded fibrils = Banner seeded fibrils (Homo sapiens (Human), UniProt P37840); experiment: Saturation binding of [125I]TZ61-84 to Banner seeded fibrils; conditions: 100 nM Banner seeded fibrils, saturation binding
# Experimental: The binding efficacy (Kd) of TZ-61-84 was determined using a modified protocol. Specifically, saturation plots of radiolabeled [^125I]TZ61-84 were obtained measuring total and nonspecific binding of TZ61-84 to 100 nM Banner seeded fibrils. The results are depicted in FIG. 15B-15D and that TZ61-84 has a high binding affinity to α-synuclein (Kd<1 nM).
# Aβ fibrils = Aβ fibrils (Homo sapiens (Human), UniProt P05067); experiment: Homologous competition radioligand binding assay, Aβ fibrils; conditions: 150 nM Aβ fibrils
# Experimental: Synthetic Aβ1-42 peptide (1 mg) (Bachem, Torrance, CA) was first dissolved in 50 μl DMSO. An additional 925 μl of mQ-H2O was added. Finally, 25 μl 1M Tris-HCl pH 7.6 was added to bring the final peptide concentration to 222 μM (1 mg/ml). The dissolved peptide was incubated for 30 h at 37° C. with shaking at 1000 rpm in an Eppendorf Thermomixer. Fibril formation was confirmed by ThioT fluorescence. To determine the concentration of fibrils, the fibril reaction mix was centrifuged at 15,000×g for 15 min to separate fibrils from monomer. The concentration of Aβ monomer in the supernatant was determined in a BCA protein assay using a BSA standard curve that contained DMSO at a percentage equivalent to the samples. […]
# These direct binding assays used a fixed concentration of either fibrils or PD/AD tissue and the radioligand (e.g., [^18F]28) and varying concentration ranges of corresponding homologous non-radiolabeled standard reference compound. […] Reactions were incubated at 37° C. for 1 h before quantifying bound radioligand. […] Filters containing the bound ligand were mixed with 150 μL of Optiphase Supermix scintillation cocktail (PerkinElmer) and counted immediately. […] The dissociation constant (Kd) and the maximal number of binding sites (Bmax) values were determined by fitting the data to the equation. […]
# Chain of Aβ fibrils (P05067 672-713): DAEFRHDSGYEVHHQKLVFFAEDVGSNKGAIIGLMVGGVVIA
structure (smiles),measurement,setting,value
COc1ccc2nc(-c3csc(C=O)c3)ccc2c1 [TZ55-81],Kd,Banner seeded fibrils,0.34 nM and 0.5 nM
same,Kd,Aβ fibrils,12 nM
